Values of other authors in patent US6632929B1, “Avidin derivatives and uses thereof” (Yeda Research and Development Co. LTD, priority 1998, dated 2003).
pKd: −log10 of the molar value.

What was measured:
[1] = biological target: T1, avidin (Gallus gallus, UniProt P02701); conditions: non-covalent, same biotin-binding site (Green, 1965); read-out: affinity; cited from earlier work
T1 construct: Egg-white avidin was provided by STC laboratories (Winnipeg, Canada); purchased STC laboratories (Winnipeg, Canada); host or cells: egg white
T1 sequence (P02701 25-152): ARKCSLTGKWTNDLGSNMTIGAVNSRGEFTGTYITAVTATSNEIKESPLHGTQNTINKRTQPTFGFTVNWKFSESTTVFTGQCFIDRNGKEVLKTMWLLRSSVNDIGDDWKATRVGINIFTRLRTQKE

[2] = biological target: T1, avidin; conditions: avidin-biotin complex; cited from earlier work
[3] = biological target: streptavidin (Streptomyces avidinii, UniProt P22629); conditions: streptavidin-biotin complex; cited from earlier work
streptavidin, sequence (P22629 25-183): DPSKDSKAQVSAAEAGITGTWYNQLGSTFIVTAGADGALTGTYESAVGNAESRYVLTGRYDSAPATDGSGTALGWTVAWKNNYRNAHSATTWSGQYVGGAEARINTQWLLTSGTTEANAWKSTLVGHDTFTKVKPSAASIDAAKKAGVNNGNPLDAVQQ

SMILES | pKd [1] | affinity constant [2] | affinity constant [3]
O=C(O)c1ccccc1N=Nc1ccc(O)cc1 [4′-hydroxyazobenzene-2-carboxylic acid] | 5.00 to 6.00 | – | –
O=C(O)CCCC[C@@H]1SC[C@@H]2NC(=O)N[C@@H]21 [biotin] | – | 1.6e+15 M⁻¹ | 2.5e+13 M⁻¹
